Results as given in ChEMBL document CHEMBL1201862, “PubChem BioAssay data set” (2004).
Active and inactive are the calls of the source.

Assays:
Interleukin-8 [1] = biological target: T1, Interleukin-8 (Homo sapiens, UniProt P10145); experiment: Dose Response confirmation of uHTS small molecule hits for cystic fibrosis induced NFkb Inhibitors in a TNFa-induced IL8 counterscreen.; format: functional; details: read-out: IC50_Mean
T1 sequence (P10145 whole entry): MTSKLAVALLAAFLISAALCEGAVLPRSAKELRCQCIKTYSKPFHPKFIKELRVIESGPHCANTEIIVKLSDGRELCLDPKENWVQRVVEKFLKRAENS

Interleukin-8 [2] = biological target: T1, Interleukin-8; experiment: Dose Response confirmation of uHTS small molecule hits for cystic fibrosis induced NFkb Inhibitors in a PAF-induced IL8 counterscreen.; format: functional; details: read-out: IC50_Mean
[3] = ARNT/TACC3 interaction disruptors, potency, confirmation, biochemical, AlphaScreen, cherry-picked samples (AID 651703); format: functional, Homo sapiens;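 also: His-tagged ARNT PAS-B domain paired with GST-TACC3 E629A dimer coactivator fragment; potency of inhibitors that break up the complex and lower AlphaScreen signal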
[4] = biological target: Ras and Rab interactor 1/Tyrosine-protein kinase ABL1 (Homo sapiens, UniProt P00519+Q13671); format: functional;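 also: biochemical TR-FRET dose-response test measuring inhibition of binding between Rin1 and Abl proteins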
Ras and Rab interactor 1/Tyrosine-protein kinase ABL1, sequence (P00519 whole entry): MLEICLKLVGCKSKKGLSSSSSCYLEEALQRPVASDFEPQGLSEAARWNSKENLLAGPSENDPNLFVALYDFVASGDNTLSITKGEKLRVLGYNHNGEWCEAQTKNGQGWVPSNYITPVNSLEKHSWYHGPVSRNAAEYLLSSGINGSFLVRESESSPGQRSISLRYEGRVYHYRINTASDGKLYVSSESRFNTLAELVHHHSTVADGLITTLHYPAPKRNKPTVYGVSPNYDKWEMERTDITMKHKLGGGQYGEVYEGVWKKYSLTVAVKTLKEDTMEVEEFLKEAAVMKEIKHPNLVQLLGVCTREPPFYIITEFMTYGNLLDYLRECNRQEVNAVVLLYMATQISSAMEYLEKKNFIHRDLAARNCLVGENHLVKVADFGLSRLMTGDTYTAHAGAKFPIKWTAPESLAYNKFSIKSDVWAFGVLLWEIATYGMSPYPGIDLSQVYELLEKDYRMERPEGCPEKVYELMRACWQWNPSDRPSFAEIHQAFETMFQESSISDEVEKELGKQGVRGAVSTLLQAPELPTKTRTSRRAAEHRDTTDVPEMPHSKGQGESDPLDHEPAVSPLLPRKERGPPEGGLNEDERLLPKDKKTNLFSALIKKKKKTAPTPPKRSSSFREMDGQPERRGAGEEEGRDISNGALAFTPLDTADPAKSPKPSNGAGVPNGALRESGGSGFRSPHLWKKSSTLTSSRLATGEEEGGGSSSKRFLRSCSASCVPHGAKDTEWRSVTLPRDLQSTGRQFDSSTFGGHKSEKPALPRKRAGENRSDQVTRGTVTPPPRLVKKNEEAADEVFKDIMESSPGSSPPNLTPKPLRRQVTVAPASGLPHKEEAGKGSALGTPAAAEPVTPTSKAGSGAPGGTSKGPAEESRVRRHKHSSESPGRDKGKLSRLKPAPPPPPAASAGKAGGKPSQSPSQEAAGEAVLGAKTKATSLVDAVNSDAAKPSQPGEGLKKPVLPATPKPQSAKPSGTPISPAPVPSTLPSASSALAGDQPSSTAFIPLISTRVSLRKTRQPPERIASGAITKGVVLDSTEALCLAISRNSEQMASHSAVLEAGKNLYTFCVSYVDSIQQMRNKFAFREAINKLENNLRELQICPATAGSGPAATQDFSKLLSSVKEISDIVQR
Ras and Rab interactor 1/Tyrosine-protein kinase ABL1, sequence (Q13671 whole entry): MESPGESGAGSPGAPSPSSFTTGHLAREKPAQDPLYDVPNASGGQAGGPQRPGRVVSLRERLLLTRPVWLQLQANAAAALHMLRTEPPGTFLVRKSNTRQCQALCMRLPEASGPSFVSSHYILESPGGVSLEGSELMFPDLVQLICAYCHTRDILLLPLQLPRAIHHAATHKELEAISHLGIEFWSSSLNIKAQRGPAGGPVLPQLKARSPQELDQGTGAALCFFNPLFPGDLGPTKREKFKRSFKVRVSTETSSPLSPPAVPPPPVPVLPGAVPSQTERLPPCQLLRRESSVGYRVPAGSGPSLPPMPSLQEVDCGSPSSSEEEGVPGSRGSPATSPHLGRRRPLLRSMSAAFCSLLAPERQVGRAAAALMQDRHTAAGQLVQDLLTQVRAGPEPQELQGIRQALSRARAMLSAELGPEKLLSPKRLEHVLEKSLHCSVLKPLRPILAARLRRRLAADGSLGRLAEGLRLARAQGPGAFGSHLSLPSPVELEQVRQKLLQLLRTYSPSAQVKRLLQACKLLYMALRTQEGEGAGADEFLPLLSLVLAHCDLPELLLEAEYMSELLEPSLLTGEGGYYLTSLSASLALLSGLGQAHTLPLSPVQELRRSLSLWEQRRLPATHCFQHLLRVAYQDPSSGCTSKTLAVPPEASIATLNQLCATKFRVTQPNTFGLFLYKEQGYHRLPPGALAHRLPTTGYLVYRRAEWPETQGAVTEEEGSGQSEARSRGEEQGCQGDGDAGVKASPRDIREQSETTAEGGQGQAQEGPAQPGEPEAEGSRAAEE

[5] = StAR promoter reporter inhibition counter-screen, dose response, counter-screen for LRH-1 inverse agonist project, cell-based, luminescence, luciferase reporter (AID 651969); format: functional
Steroidogenic factor 1 = Steroidogenic factor 1 (Homo sapiens, UniProt Q13285); experiment: Counterscreen for inverse agonists of the liver receptor homolog-1 (LRH-1; NR5A2): Luminescence-based cell-based high throughput dose response assay to identify inverse agonists of the Steroidogenic Factor 1 Nuclear Receptor (SF1; NR5A1).; format: functional
Steroidogenic factor 1, sequence (Q13285 whole entry): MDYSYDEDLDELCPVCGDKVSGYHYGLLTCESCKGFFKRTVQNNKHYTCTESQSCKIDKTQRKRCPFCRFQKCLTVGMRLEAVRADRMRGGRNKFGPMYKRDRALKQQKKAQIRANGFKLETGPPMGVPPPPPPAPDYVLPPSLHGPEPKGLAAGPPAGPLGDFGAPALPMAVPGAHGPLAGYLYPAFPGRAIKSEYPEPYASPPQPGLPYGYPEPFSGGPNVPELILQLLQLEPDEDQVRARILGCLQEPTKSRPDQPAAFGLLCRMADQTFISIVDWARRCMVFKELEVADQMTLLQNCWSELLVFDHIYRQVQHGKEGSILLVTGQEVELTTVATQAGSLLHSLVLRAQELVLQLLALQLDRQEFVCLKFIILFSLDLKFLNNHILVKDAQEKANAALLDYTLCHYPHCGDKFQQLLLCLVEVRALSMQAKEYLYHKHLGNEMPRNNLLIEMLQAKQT

[6] = biological target: Nuclear receptor subfamily 5 group A member 2 (Homo sapiens, UniProt O00482); format: functional, cell-based;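 also: HEK293T cells transfected with LRH-1 and a StAR promoter luciferase reporter; potency for inhibitors that lower LRH-1 driven reporter light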
Nuclear receptor subfamily 5 group A member 2, sequence (O00482 whole entry): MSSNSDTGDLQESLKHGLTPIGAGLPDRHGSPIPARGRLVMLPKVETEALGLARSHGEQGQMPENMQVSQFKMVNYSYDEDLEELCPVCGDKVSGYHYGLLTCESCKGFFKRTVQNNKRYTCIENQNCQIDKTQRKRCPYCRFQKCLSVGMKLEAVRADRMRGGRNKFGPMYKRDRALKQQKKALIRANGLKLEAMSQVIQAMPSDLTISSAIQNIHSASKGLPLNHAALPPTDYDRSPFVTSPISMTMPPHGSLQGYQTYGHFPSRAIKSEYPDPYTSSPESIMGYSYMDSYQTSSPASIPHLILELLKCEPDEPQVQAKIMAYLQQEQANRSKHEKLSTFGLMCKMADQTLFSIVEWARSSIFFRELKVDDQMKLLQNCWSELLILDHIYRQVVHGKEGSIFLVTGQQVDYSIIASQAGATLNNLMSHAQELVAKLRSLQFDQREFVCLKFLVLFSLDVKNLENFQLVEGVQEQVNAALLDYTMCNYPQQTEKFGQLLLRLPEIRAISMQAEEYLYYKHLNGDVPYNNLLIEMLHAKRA

BJ [7] = experiment: cytotoxicity toward BJ-TERT-LT-ST fibroblasts, dose response, cell-based, RAS-independent, luminescence (AID 1935); format: functional; details: Homo sapiens;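 also: BJ fibroblasts immortalized with TERT plus LT and ST oncogenes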
[8] = biological target: T2, Oxysterols receptor LXR-beta (Homo sapiens, UniProt P55055); format: functional, cell-based;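 also: Cell-based luminescence dose-response assay of agonist activity at LXR, run as a confirmatory counterscreen to a daf-12 agonist screen; HEK293 cells with Gal4-LXR fusion and GAL4-driven luciferase reporter; agonist potency from rising luciferase signal of a Gal4-LXR reporter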
T2 sequence (P55055 whole entry): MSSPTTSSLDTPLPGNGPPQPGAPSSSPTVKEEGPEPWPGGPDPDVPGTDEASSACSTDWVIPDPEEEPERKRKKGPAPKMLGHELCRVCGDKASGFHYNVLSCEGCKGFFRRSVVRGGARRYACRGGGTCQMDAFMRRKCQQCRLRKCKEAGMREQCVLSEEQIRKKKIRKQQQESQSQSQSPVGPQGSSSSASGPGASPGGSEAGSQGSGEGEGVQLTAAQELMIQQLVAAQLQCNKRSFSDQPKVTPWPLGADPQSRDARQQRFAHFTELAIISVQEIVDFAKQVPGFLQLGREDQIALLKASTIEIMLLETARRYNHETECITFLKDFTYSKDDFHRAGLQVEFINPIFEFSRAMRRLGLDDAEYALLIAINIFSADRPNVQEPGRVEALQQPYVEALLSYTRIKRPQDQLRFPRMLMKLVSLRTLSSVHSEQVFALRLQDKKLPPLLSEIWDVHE

BJ [9] = experiment: cytotoxicity toward Ras-transformed BJeLR fibroblasts, dose response, cell-based, alamar blue fluorescence, cherrypicked samples (AID 2631); format: functional; details: Homo sapiens;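 also: confirmatory dose-response assay in RAS-dependent BJ fibroblasts engineered with TERT, LT and ST, with cytotoxicity read by fluorescence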
BJ [10] = experiment: cytotoxicity toward BJ-TERT fibroblasts, dose response, cell-based, RAS-independent, luminescence (AID 1933); format: functional; details: Homo sapiens
[11] = cytotoxicity toward DRD oncogenic fibroblasts, dose response, cell-based, non-viral oncogenic, luminescence (AID 1934); format: functional; details: Homo sapiens
BJ [12] = experiment: cells; format: functional, cell-based; details: Homo sapiens
Streptokinase A = biological target: T3, Streptokinase A (Streptococcus pyogenes serotype M1, UniProt P10520); experiment: S. pyogenes streptokinase expression inhibitors, potency, dose response, plasminogen activation absorbance, OD405 (AID 1914); format: functional, Streptococcus pyogenes M1 GAS;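 also: secreted streptokinase activity via plasminogen activation per viability signal from cell pellet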
T3 sequence (P10520 whole entry): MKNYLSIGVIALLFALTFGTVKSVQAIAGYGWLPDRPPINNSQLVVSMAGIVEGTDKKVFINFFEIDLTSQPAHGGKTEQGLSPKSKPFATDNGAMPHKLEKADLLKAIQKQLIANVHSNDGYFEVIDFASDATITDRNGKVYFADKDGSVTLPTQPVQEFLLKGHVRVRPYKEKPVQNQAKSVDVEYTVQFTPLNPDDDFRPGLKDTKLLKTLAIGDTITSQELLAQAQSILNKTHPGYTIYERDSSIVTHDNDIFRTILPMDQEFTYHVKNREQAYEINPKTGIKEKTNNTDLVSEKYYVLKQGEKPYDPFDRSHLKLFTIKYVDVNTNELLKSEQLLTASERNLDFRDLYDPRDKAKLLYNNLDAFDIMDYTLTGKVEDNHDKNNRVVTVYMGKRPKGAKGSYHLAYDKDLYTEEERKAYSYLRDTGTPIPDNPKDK

Streptococcus = experiment: Group A Streptococcus viability loss, dose response, counter-screen for streptokinase expression inhibitor project, luminescence, BacTiterGlo (AID 1915); format: functional, organism-based;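 also: potency for reduction of bacterial viability or growth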
[13] = tested on: Streptococcus sp. 'group A'; experiment: growth inhibition of control SK(-) GAS strain, dose response, counter-screen for streptokinase expression inhibitor project, luminescence, kanamycin, BacTiterGlo, confirmation (AID 1900); format: functional, organism-based

For CS(=O)(=O)c1ccc2nc(NC(=O)CCS(=O)(=O)c3ccccc3)sc2c1, the IC50 (Interleukin-8 [1]) was 1.5 µM (active) and the IC50 (Interleukin-8 [2]) was 1.36 µM (active).

In the case of CC1=CC(C)(C)N(C(=O)C(C)N2C(=O)c3ccccc3C2=O)c2ccc(C)cc21 (configuration not stated), the AC50 [3] was 119 µM (active).

In the case of CN1CCN(C(=O)CSc2nc(-c3ccncc3)ccc2C#N)CC1, the IC50 [4] was 39 µM (inactive).

For NS(=O)(=O)c1ccc(CCNC(=O)COc2ccc3c4c(c(=O)oc3c2)CCC4)cc1, the IC50 [5] was 35.9 µM (inactive), the IC50 (Steroidogenic factor 1) was 35.9 µM (inactive) and the IC50 [6] was 35.9 µM (inactive).

With COc1cccc(NC(=O)n2ncc3c(C)cccc32)c1 the EC50 (BJ [7]) was 18.2 µM (active), the EC50 [8] was > 67.5 µM (inactive) and the EC50 (BJ [9]) was > 133 µM (inactive). For the same compound, the EC50 (BJ [10]) was 11.5 µM (active), the EC50 [11] was 6.62 µM (active) and the EC50 (BJ [12]) was 8.05 µM (active). For the same compound, the EC50 (cells) was > 67.5 µM (inactive).

With COc1ccc(-c2c[nH]nc2-c2ccc(OC)cc2)cc1 the EC50 (Streptokinase A) was > 150 µM (not active), the EC50 (Streptococcus) was 8.74 µM (active) and the IC50 (Interleukin-8 [1]) was 3.57 µM (active). For the same compound, the EC50 [13] was 3.33 µM (active) and the IC50 (Interleukin-8 [2]) was 5.39 µM (active).

In the case of CCC(C)(C)n1nnnc1CN1CCC(O)(c2cccc(C(F)(F)F)c2)CC1, the IC50 [5] was 35.9 µM (inactive), the IC50 (Steroidogenic factor 1) was 12.4 µM (inactive) and the IC50 [6] was 9.63 µM (active).
